Laboratory results as given in EP4699605A1, “USE OF NOVEL COMPOUND FOR TREATING INTRACTABLE DISEASES” (YJ Cerapeutics Inc., priority 2023, dated 2024).

Columns and labels:
microglia = experiment: Microglial activation in spinal cord of SNI model (OX-42 staining, p-p38MAPK Western blot); format: in vivo, Sprague-Dawley rats
Experimental: To be used as a peripheral nerve injury animal model, a sciatic nerve injury (SNI) model was prepared (FIG. 1C). Specifically, 200 to 220 g of male adult Sprague-Dawley rats were anesthetized by intraperitoneal injection of chloral hydrate (500 mg/kg), and then three terminal branches (tibial, common peroneal, and sural nerves) of the right sciatic nerve were approached, and the tibia nerve and the peroneal nerve were tightly ligated with 4-0 silk, and neurectomy was performed at a distal 3 mm position of the ligation site. At this time, a Sham group was a group that exposed only the sciatic nerve without damage.
To analyze the activation of microglia in the spinal cord, which were known to play an important role in the induction/persistence of neuropathic pain, 4 weeks after nerve injury in the SNI animal model, the spinal cord of 4 and 5 lumbar vertebrae was stained with OX-42 to confirm changes in cell shape and intensity. […] The supernatant was transferred to a new microcentrifuge, the protein concentration was measured using a BCA kit, and samples for Western blot were prepared by adding a 1X sample buffer and boiling for 5 minutes. […]

[1] = tested on: IMQ psoriasis animal model; experiment: Epidermal layer thickness (H&E) in IMQ psoriasis animal model; format: in vivo, C57BL/6 mouse
Experimental: Psoriasis caused by excessive production of skin cells was a chronic skin disease associated with various factors, including autoimmune diseases, and its symptoms included red and thickened skin and abnormally occurring scaling. […] Specifically, the back region of a C57BL/6 mouse (male, 18 to 20 g, 8 weeks) (Daehan Biolink, Eumseong, Korea) was shaved to remove hair, and then applied with IMQ cream (83 mg/day) (5%) for consecutive 5 days from Day 0 to Day 4 to induce psoriasis-like skin inflammation, and a normal control mouse (Sham) was applied with Vaseline cream (FIG. 16A).
On day 6, the skin tissue of the psoriasis mouse model was stained with Hematoxyline & Eosin, and the epidermal layer thickness was measured. Specifically, on Day 6, the skin of the mouse back was extracted, immersed in 4% paraformaldehyde for 24 hours to fix the tissue, and then paraffin blocks were made to prepare paraffin tissue sections with a thickness of 5 µm. In order to measure the thickness of the epidermal layer, paraffin tissue was stained with Hematoxylene & Eosin (Abcam) according to the manufacturer's protocol, and five sections of the epidermal layer from each mouse were photographed at 200x magnification using an optical microscope. The epidermal layer thickness was measured in tissues from a total of five mice (a total of 25 sections) and the average value was calculated.

[2] = tested on: traumatic spinal cord injury (SCI) model; experiment: Urinary function analysis in SCI model (residual urine volume, UBFS, bladder size and weight); format: in vivo, Sprague-Dawley rats
Experimental: To be used as a central nerve injury animal model, a traumatic spinal cord injury (SCI) model was prepared (FIG. 1A). Specifically, 230 to 250 g of male adult Sprague-Dawley rats were anesthetized by intraperitoneal injection of chloral hydrate (500 mg/kg), and then the back and neck regions were shaved, and the spinal cord under the back and neck regions was exposed without damaging the dura mater, and a laminectomy was performed at T9 to T10 levels. To stabilize the spine, the spinous processes of T8 and T11 were fixed, and the spine was damaged by free-falling a 10 g weight from a height of 25 mm using an NYU impactor onto the back surface of the exposed spinal cord and then the rats were left in a temperature and humidity-controlled chamber overnight while covering the muscles and skin. After surgery, the rats were subcutaneously injected with a supplement solution (5 ml, lactated ringer) and injected with antibiotics (gentamicin, 5 mg/kg, intramuscular injection) once daily for 5 days. The body weight, remaining food, and the weight of water were confirmed and recorded for all animals, and the bladder was emptied twice daily by passive bladder massage until reflex micturition was established. At this time, a Sham group was a group that was subjected to only laminectomy without damage.
In order to confirm the effect of YJ102 (Chemical Formula 1), a compound of the present disclosure, on urinary disturbances caused by spinal cord injury, immediately after preparing the traumatic spinal cord injury (SCI) model (FIG. 1A) prepared in Example 1 above, YJ102 was dissolved in DMSO, methyl pyrrolidinone, and water (1 : 1.5 : 1) and administered intraperitoneally at 5 mg/kg, and then intraperitoneally administered at 24-hour intervals for 7 days from the next day. Thereafter, the effect of improving bladder functions was analyzed through a residual urine volume test and a urinary bladder function score (UBFS). At this time, a Vehicle group was administered with the same amount of a solution of DMSO, methyl pyrrolidinone, and water. Specifically, in order to determine the amount of urine remaining in the bladder after spinal cord injury, bladder extrusion was performed twice a day by applying pressure to the central bottom portion of the lower abdomen using the index and middle fingers to empty the bladder, and the expelled urine was collected in a catheter and its volume was recorded. […]

In the case of `CCc1ccc(N(C(=O)COC)c2nc3cc(Cl)ccc3o2)cc1` [YJ102], the “microglia activation changes (OX-42 intensity, activated morphology)” value (microglia; 4 weeks after nerve injury, L4-L5 spinal cord, vs Vehicle) is reported as “significantly reduced”, the “amount of p-p38MAPK” value (microglia; spinal cord, Western blot) is reported as “significantly reduced” and the “reduction of epidermal layer thickness compared to the Vehicle group” value ([1]; Day 6) is reported as “approximately 35%”. For the same molecule, the epidermal layer thickness ([1]; Day 6, 5 mg/kg intraperitoneally, Sham 36.6 ± 2.3, Vehicle 141.3 ± 7.5) was 89.8 ± 6.8 µm, the “number of cells introduced into the dermal layer” value ([1]; Day 6, skin tissue H&E) was “decreased to the Sham level” and the bladder size ([2]; 5 mg/kg intraperitoneally) was “significantly reduced”. For the same molecule, the bladder weight ([2]; 5 mg/kg intraperitoneally) was “significantly reduced”, the residual urine volume ([2]; 5 mg/kg intraperitoneally at 24-hour intervals, vs Veh group, from the first day of administration) was “significantly reduced” and the “bladder function restoration using the UBFS” value ([2]; 5 mg/kg intraperitoneally, vs Vehicle group on day 3 and day 7 after spinal cord injury) was “significantly increased”.
